# Assay results as given in publication PMC7897990, “TriTOX: A novel Trichomonas vaginalis assay platform for high-throughput screening of compound libraries” (International Journal for Parasitology: Drugs and Drug …, 2021).
# Read-outs that look alike come from different tables or passages of the source.
# What was measured:
# [1] = system: nontumorigenic neonatal foreskin fibroblast (NFF) cell line
# [2] = system: Trichomonas vaginalis G3 trophozoites; conditions: for T.vaginalis_%inb_Rep1: replicate 1; for T.vaginalis_%inb_Rep2: replicate 2
# [3] = HTS single concentration, parasite screen 1 µg/mL
# [4] = NFF_NS1 screen at 5 µg/mL, NFF cells
Compound,"NFF_Activity ([1]; NFF_NS1 screen 5 µg/mL, single concentration)","T.vaginalis_%inb_Rep1 [2, 3]","T.vaginalis_%inb_Rep2 [2, 3]","NFF_Activity [1, 4]",T.vaginalis_%inb_Rep1 ([2]; parasite screen at 1 µg/mL),T.vaginalis_%inb_Rep2 ([2]; parasite screen at 1 µg/mL)
COC1=C(N)C(=O)c2nc(-c3nc(C(=O)O)c(C)c(-c4cccc(OC)c4O)c3N)ccc2C1=O [BIA-S1088],A (active (A) compounds having >25% inhibitory activity),77.76%,92.91%,–,–,–
COC(=O)c1cc(O)cc(OC)c1C(=O)c1c(O)cc(C)cc1O [BIA-S1089],–,–,–,A (active (A) compounds having >25% inhibitory activity),9.49%,14.81%
COC1=C(N)C(=O)c2nc(-c3nc(C(=O)O)c(C)c(-c4ccc(OC)c(OC)c4O)c3N)ccc2C1=O [BIA-S1107],–,–,–,A (active (A) compounds having >25% inhibitory activity),76.72%,90.80%
CN(N=O)C(=O)N[C@@H]1[C@@H](O)[C@H](O)[C@@H](CO)O[C@@H]1O [BIA-S1186],–,–,–,I (otherwise these were reported as inactive (I)),9.02%,7.62%
COc1cc2c(c3oc4cccc(O)c4c(=O)c13)[C@@H]1C=CO[C@@H]1O2 [BIA-S1213],–,–,–,I (otherwise these were reported as inactive (I)),10.12%,14.32%
Nc1ncnc2c1ncn2[C@@H]1O[C@H](C[C@@H](N)CC[C@H](N)C(=O)O)[C@@H](O)[C@H]1O [BIA-S1376],–,–,–,I (otherwise these were reported as inactive (I)),11.43%,25.29%
CN(C)[C@@H]1C(=O)C(C(N)=O)=C(O)[C@@]2(O)C(=O)C3=C(O)c4c(O)cccc4C[C@H]3C[C@@H]12.Cl [BIA-S1534],–,–,–,I (otherwise these were reported as inactive (I)),5.02%,3.66%
Cc1cc(O)c2c(c1)C(=O)c1c(c(O)cc(O)c1-c1c(O)cc(O)c3c1C(=O)c1cc(C)cc(O)c1C3=O)C2=O [BIA-S1662],–,–,–,I (otherwise these were reported as inactive (I)),9.89%,5.90%
O=C1NCc2nc3ccccc3c(=O)n2-c2ccccc21 [BIA-S1678],–,–,–,I (otherwise these were reported as inactive (I)),10.85%,12.61%
COc1cc(/C=C/C(=O)O)cc(OC)c1O [BIA-S1730],–,–,–,I (otherwise these were reported as inactive (I)),9.02%,14.02%
Cc1cc(O)c(C=O)c2c1C(=O)Oc1c(CO)c(O)c3c(c1O2)C(O)OC3=O (stereo not drawn) [BIA-S1741],–,–,–,I (otherwise these were reported as inactive (I)),17.25%,7.43%
CC1(C)C=Cc2c(ccc3ccc(=O)oc23)O1 [BIA-S1776],–,–,–,I (otherwise these were reported as inactive (I)),12.88%,13.28%
CSC[S@@+]([O-])CC(CO)NC(=O)/C=C/c1c(C)[nH]c(=O)[nH]c1=O (stereo partly drawn) [BIA-S1798],–,–,–,A (active (A) compounds having >25% inhibitory activity),68.56%,88.33%
O=C1C=C2C=C[C@@H]3C[C@@]2(O1)[C@H]1CCCCN31 [BIA-S1947],–,–,–,I (otherwise these were reported as inactive (I)),7.81%,10.30%
CC(=O)Nc1c2sscc-2n(C)c1=O [BIA-T1138],–,–,–,A (active (A) compounds having >25% inhibitory activity),100.00%,97.56%
COc1cc(-c2ccc(O)cc2)c(OC)c(O)c1-c1ccc(O)cc1 [BIA-T1200],–,–,–,I (otherwise these were reported as inactive (I)),9.75%,14.63%
CC[C@H](C)[C@@H]1NC(=O)C(C(C)=O)=C1O [BIA-T1277],–,–,–,I (otherwise these were reported as inactive (I)),8.60%,14.81%
CC[C@H]1C[C@@H]2CC[C@@H](O2)[C@@H](C)C(=O)O[C@H](CC)C[C@H]2CC[C@H](O2)[C@H](C)C(=O)O[C@@H](CC)C[C@@H]2CC[C@@H](O2)[C@@H](C)C(=O)O[C@H](CC)C[C@H]2CC[C@H](O2)[C@H](C)C(=O)O1 [BIA-T1287],–,–,–,I (otherwise these were reported as inactive (I)),8.97%,15.05%
CCC1OC(=O)C(C)C(=O)C(C)C(OC2OC(C)CC(N(C)C)C2O)C(C)(OC)CC(C)C(=O)C(C)C2N(CCCCn3cnc(-c4cccnc4)c3)C(=O)OC12C (stereo not drawn) [BIA-T1316],–,–,–,I (otherwise these were reported as inactive (I)),0.94%,5.97%
CCCCCCCCCCC[C@@H](C[C@@H]1OC(=O)[C@H]1CCCCCC)OC(=O)[C@H](CC(C)C)NC=O [BIA-T1320],–,–,–,I (otherwise these were reported as inactive (I)),10.91%,19.44%
CO[C@H]1C[C@@H]2CC[C@@H](C)[C@@](O)(O2)C(=O)C(=O)N2CCCC[C@H]2C(=O)O[C@H]([C@H](C)C[C@@H]2CC[C@@H](OC(=O)C(C)(CO)CO)[C@H](OC)C2)CC(=O)[C@H](C)/C=C(\C)[C@@H](O)[C@@H](OC)C(=O)[C@H](C)C[C@H](C)/C=C/C=C/C=C/1C [BIA-T1386],–,–,–,I (otherwise these were reported as inactive (I)),7.60%,9.14%
C/C=C/C1=CC(=O)[C@@H](O)[C@@H]1O [BIA-T1408],–,–,–,I (otherwise these were reported as inactive (I)),6.82%,13.71%
C=C[C@@](C)(CCC=C(C)C)c1ccc2c3c(c[nH]c13)C[C@@H](CO)NC(=O)[C@H](C(C)C)N2C [BIA-T1429],–,–,–,I (otherwise these were reported as inactive (I)),11.80%,16.64%
CS(=O)(=O)c1ccc([C@@H](O)[C@@H](CO)NC(=O)C(Cl)Cl)cc1 [BIA-T1486],–,–,–,I (otherwise these were reported as inactive (I)),8.02%,12.00%
CCCCCCCCCCCCCC(=O)N[C@H]1CCOC1=O [BIA-T1499],–,–,–,I (otherwise these were reported as inactive (I)),6.40%,13.16%
CC[C@@H](C)/C=C(C)/C=C/C(=O)c1c(O)c(-c2ccc(O)cc2)cn(O)c1=O [BIA-T1566],–,–,–,I (otherwise these were reported as inactive (I)),8.55%,14.93%
CC1=C(O)C(=O)[C@@H]2O[C@@H]2C1=O [BIA-T1695],–,–,–,A (active (A) compounds having >25% inhibitory activity),9.91%,12.25%
CC1=C[C@H]2O[C@@H]3[C@H](O)[C@@H](O)[C@](C)([C@@]2(CO)C[C@@H]1O)[C@]31CO1 [BIA-T1932],–,–,–,I (otherwise these were reported as inactive (I)),10.49%,13.71%
